The subject of series [1] is Jurkat cells. Briefly: Internalization of β-galactosidase into Jurkat cells, X-gal staining. The format is cell-based, Human. Particulars: complexes of β-galactosidase and CPP, ratio 1:10, X-Gal staining. How it is done: (§1) A detailed description of formation of complexes with peptides and proteins is given in a previous publication. Briefly, cargo proteins (ATTO488-BSA, MW ≈ 68 kDa, β-galactosidase, MW ≈ 540 kDa) and the calculated volume of stock solution of CPPs or JBS-Proteoducin were dissolved separately in 100 µL of 1× PBS). Both solutions were thoroughly mixed by repeated pipetting. The mixture was incubated for 30 minutes at 37 °C to achieve complex formation. The molar ratio of cargo to CPPs was usually calculated to 1:10. For internalization of higher amounts of cargo, both the amount of protein and stock solution of CPP or cocktail, respectively, were multiplied. Complexes of the enzyme β-galactosidase and JBS-Proteoducin were formed from 1 µg β-galactosidase and 1 µL stock solution of JBS-Proteoducin under the described conditions.
The thoroughly washed cell pellet was suspended in 200 µL of complex solution followed by 400 µL of serum free medium, gently mixed and transferred into 24-well plates. […] After addition of 1.4 mL of complete culture medium incubation was continued at 37 °C for approx. 2 h in a humidified atmosphere containing 5% CO2. The cells were washed by spinning down twice with PBS, three times with glycine buffer (pH 3.0) and twice with PBS.
(§2) Staining of the cells took place in multiwell-plates. Jurkat and Leishmania cells were stained according to the instructions described in [24], using a staining solution containing potassium ferrocyanide, potassium ferricyanide and X-gal. Leishmania cells were stained after finishing the above described transduction protocol. For Jurkat cells the staining was performed after transferring cells from spinning tubes used in the last washing step to 24-well plates. Cells were incubated in staining solution overnight and directly observed in a microscope using a 400-fold magnification.

Series [2] relates to most of the cells investigated. In words: Proteolytic stability of CPPs compared over the cells investigated. The format is in vitro ADME. Particulars: incubation with intact cells up to 60 min, PBS, 37 °C, HPLC. How it is done:
(§3) In a 6-well-plate with 0.3 × 10^6 cells per well the different cell types were cultivated overnight under optimized conditions. Then medium was removed by aspiration (adherent cell) or centrifugation (suspension cells) and washed cells were incubated with CPPs in phosphate buffer solution (PBS). Incubation was performed under the same conditions as the transduction of complexes with the cargo for 1 h at 37 °C in a humidified atmosphere containing 5% CO2. After 15, 30, 45 and 60 min samples of 200 µL were taken and the proteolytic reaction was stopped by addition of 50 µL 37 perc. HCl. After freezing and lyophilization samples were analyzed by analytical high performance liquid chromatography (HPLC), using a RP18 column (Vydac 218TP). In case of MPGβ, for elution a gradient was used from 10% acetonitrile and 90% water, both containing 0.1% trifluoroacetic acid to 60% acetonitrile and 40% water in 50 min. […] The flow rate was 1.0 ml/min and detection was performed at 220 nm.

Series [3] concerns Leishmania tarentolae. Briefly: Cytotoxicity test for Leishmania tarentolae (morphology and motility). Format: cell-based. How it is done:
Leishmania cells were cultivated as described previously, resuspended in PBS and treated with increasing concentrations of cocktails and CPPs for 1 h. Cytotoxic effects were monitored by changes in morphology and motility observed using a microscope at 400-fold magnification.

Series [4] has as its system HeLa cells. Particulars: non-covalent complexes, X-Gal staining; cited from earlier work. The text has this: HeLa cells: As shown in our preceding publication, the CPP cocktail JBS-Proteoducin can internalize enzymatic active β-galactosidase into all cell types investigated, including difficult to transfect Kasumi-1 cells. The active enzyme was transported not only into all types of cells but all of the observed cells are also positively stained using the β-galactosidase substrate 5-bromo-4-chloro-indolyl-β-D-galactopyranoside (X-Gal).

Series [5] deals with HeLa cells. In words: Membrane integrity, CytoTox-Glo assay, HeLa cells. As to conditions: low concentrations (9.4 µM), 1 h at 37 °C in serum-free medium, triplicates. The format is cell-based, Human. How it is done:
(§4) Cells were cultured under standard conditions and treated in serum-free medium for 1 h at 37 °C with different CPPs and the cocktail. After removal of CPPs and repeated washings the membrane integrity of the cells was estimated by the bioluminescence test CytoTox-Glo measuring the release of a cytosolic dead-cell protease. The CytoTox-Glo assay was performed according to the supplier’s instructions and adapted to 96-well plates. Bioluminescence was estimated by a luminescence plate reader. Each value was measured in triplicates with an SD of ± 1.2.

For series [6], the system named is Leishmania tarentolae. Particulars: non-covalent complexes; cited from earlier work. The text has this: Formation of non-covalent complexes between cargo and CPP occurs by optimized interaction of the CPP with the surface of the cargo. These complexes are stabilized by ionic, polar, π-electron-cation, or hydrophobic interactions, hydrogen bonds and common interactions between molecules. Thus, for the same cell type different cargoes show different rank orders for CPPs.

Series [7] has as its system different cell lines. In words: Membrane integrity, CytoTox-Glo assay, different cell lines. Particulars: up to 141 µM, 1 h at 37 °C in serum-free medium, triplicates. Format: cell-based. How it is done:
as §4

The subject of series [8] is COS-7 cells. Briefly: Degradation of CPPs by secreted and surface bound proteases of COS-7 cells. As to conditions: 60 min incubation with 0.3 × 10^6 intact cells per well, PBS, 37 °C, 5% CO2, RP18 HPLC, 220 nm. How it is done: as §3
Series [9] deals with HeLa cells. Particulars: non-covalent complexes; cited from earlier work. The procedure:
Table 4 Intracellular amounts and concentrations. Internalized amounts are calculated from fluorescence intensities in the homogenate directly or after separation by SDS-PAGE. In the case of nucleoside triphosphates quantification was performed by fluorescence spectrometry. Estimation of cell volumes allows the calculation of intracellular concentrations. […] The rank order for the uptake of β-galactosidase into HeLa cells: JBS-Proteoducin > MPGα ≥ MPGβ > CAD-2 >> CPPP-2 // HIV-TAT = penetratin provides evidence for different requirements of enzyme and nucleotide for co ...

In series [10] the test system is NB-4 cells. Briefly: Degradation of CPPs by proteases of NB-4 cells. Format: in vitro ADME, Human. Particulars: 60 min incubation with 0.3 × 10^6 intact cells per well, PBS, 37 °C, 5% CO2, RP18 HPLC, 220 nm. The procedure: as §3
Series [11] has as its system NB-4 cells. Briefly: Membrane integrity, CytoTox-Glo assay, NB-4 cells. The format is cell-based, Human. As to conditions: low concentrations (9.4 µM), 1 h at 37 °C in serum-free medium, triplicates. The procedure:
as §4

Series [12] concerns Leishmania tarentolae. Briefly: Internalization of β-galactosidase into Leishmania tarentolae, X-gal staining. Format: cell-based. As to conditions: molar ratios 1:5, 1:10, 1:20 of cargo and CPP. The procedure: as §1
For transduction cells in an early stage of development were used. To this end stock cultures were diluted 1:10 the day before the experiment into 10 mL of culture medium in 25 cm^2-ventilated tissue culture flasks and were incubated overnight in the dark at 26 °C for optimal proliferation. Cell suspensions with an OD of 1.2 (ca. 4 × 10^7 cells/mL) were used for transduction. The cells were thoroughly washed twice with PBS (5 mL each) by centrifugation (2,000 × g, 3 min). Pellets were resuspended in the original volume of PBS containing 0.1% BSA and aliquoted into 24-well plates. Four hundred µL of cell suspension were used per experiment. Two hundred µL of the complex solutions were added to these cells and mixtures were incubated for 1 h at 26 °C in the dark with gentle agitation. Successively, 1 mL of complete growth medium (LEXSY BHI) was added per sample and incubation was continued at 26 °C for 2 h. Cells were washed twice with PBS (2 mL each) by centrifugation (2,000 × g, 3 min) prior to analysis of transduction.
as §2

Entries after “also recorded” stand apart in the source; their conditions may differ.

For the substance “GLWRALWRLLRSLWRLLWKA-NH-CH2-CH2-SH [CAD-2, des-acetyl, Lys^19-CADY, cell penetrating peptide, 6 positive charges]”, the “rank order for internalization of β-galactosidase into Jurkat cells” value in [1] is “JBS-Proteoducin > MPGβ > MPGα > CAD-2 >> CPPP-2”. For the same substance, in series [2], the “relative proteolytic stability among the CPPs” value is “nearly unaffected; also recorded: most stable”. Besides, the “Cytotoxicity in Leishmania tarentolae” value in [3] is on record as ≤ 25 µM. Besides, the “rank order for internalization of β-galactosidase into HeLa cells” value in series [4] is “JBS-Proteoducin > MPGα ≥ MPGβ > CAD-2 >> CPPP-2 // HIV-TAT, penetratin”. Also, the “membrane integrity of HeLa cells (release of dead-cell protease)” value in [5] is recorded as “sensitive”. Also, in series [6], the “rank order for transport of ATTO488-labeled BSA into Leishmania” value was “MPGα >> CAD-2 > histone”. In [7], the “reduction of membrane integrity with increasing concentrations” value is reported as “very low”. Also, the “stability against proteolytic cleavage by COS-7 cells (HPLC peak)” value in series [8] is listed as “remains stable”. Further, the “rank order of uptake efficiency of ATTO488-dUTP into HeLa cells” value in series [9] is recorded as “JBS-Nucleoducin > CAD-2 > MPGα ≥ MPGβ > penetratin >> CPP-2”. Besides, the “stability against proteolytic cleavage by NB-4 cells (HPLC peak)” value in [10] was “remains stable”. For the same substance, the “membrane integrity of NB-4 cells (release of dead-cell protease)” value in series [11] was “sensitive”. Besides, the “rank order for uptake efficiency of β-galactosidase into Leishmania tarentolae” value in [12] is “CAD-2 > MPGα > Histone > MPGβ >> penetratin ≥ HIV-TAT ≥ CPPP-2”.

These data come from article PMC3816687, “Relationships between Cargo, Cell Penetrating Peptidesand Cell Type for Uptake of Non-Covalent Complexes into Live Cells” (Pharmaceuticals, 2013).
